Literature values as cited in US5209933A, “Long acting calcium channel blocker composition” (Syntex (U.S.A.) Inc., priority 1991, dated 1993).
Read-outs that look alike come from different tables or passages of the source.

How the values were obtained:
calcium channel = conditions: result in words
[1] = result in words
[2] = result in words; remark: listed apart in the source

Compound	calcium channel blocking activity (calcium channel)	further results
CCCOCCOC(=O)C1=C(C)NC(C)=C(C(=O)OCCOCCC)C1c1cccc([N+](=O)[O-])c1 [niludipine, 4-(3'-nitrophenyl)-2,6-dimethyl-1,4-dihydropyridine-3,5-dicarboxylic acid di-n-propyloxethyl ester]	high degree of calcium channel blocking activity	–
CCOC(=O)C1=C(C)NC(C)=C(C(=O)OC)C1c1cccc([N+](=O)[O-])c1 (stereo not drawn) [nitrendipine, 4-(3'-nitrophenyl)-2,6-dimethyl-1,4-dihydropyridine-3,5-dicarboxylic acid 3-ethyl ester 5-methyl ester]	high degree of calcium channel blocking activity	–
COC(=O)C1=C(C)NC(C)=C(C(=O)OC)C1c1ccccc1[N+](=O)[O-] [nifedipine, 4-(2'-nitrophenyl)-2,6-dimethyl-1,4-dihydropyridine-3,5-dicarboxylic acid dimethyl ester]	high degree of calcium channel blocking activity	calcium channel blocking activity (calcium channel; listed as 4-(2'-nitrophenyl)-2,6-dimethyl-1,4-dihydropyridine-3,5-dicarboxylic acid dimeth): shows calcium channel blocking activity
CCOC(=O)C1=C(C)NC(C)=C(C(=O)OC)C1c1cccc(Cl)c1Cl (stereo not drawn) [felodipine, 4-(2',3'-dichloro)-2,6-dimethyl-1,4-dihydropyridine-3,5-dicarboxylic acid 3-ethyl ester 5-methyl ester]	high degree of calcium channel blocking activity	–
CCOC(=O)C1=C(C)NC(C)=C(C(=O)OCC)C1c1ccccc1C(F)F [2,6-dimethyl-3,5-diethoxycarbonyl-4-(o-difluoromethylphenyl)-1,4-dichydropyridine]	high degree of calcium channel blocking activity	–
4-(3'-nitrophenyl)-2,6-dimethyl-1,4-dihydropyridine-3,5-dicarboxylic acid 3-methyl ester 5-(2-methoxyethyl)ester [nimodipine]	high degree of calcium channel blocking activity	–
COC(=O)C1=C(C)NC(C)=C(C(=O)OCC(C)C)C1c1ccccc1[N+](=O)[O-] (stereo not drawn) [nisoldipine, 4-(2'-nitrophenyl)-2,6-dimethyl-1,4-dihydropyridine-3,5-dicarboxylic acid 3-methyl ester 5-isobutyl ester]	high degree of calcium channel blocking activity	–
COC(=O)C1=C(C)NC(C)=C(C(=O)OC(C)C)C1c1cccc([N+](=O)[O-])c1 (stereo not drawn) [isopropyl methyl 1,4-dihydro-2,6-dimethyl 4-(3-nitrophenyl)-3,5-pyridine dicarboxylate]	high degree of calcium channel blocking activity	–
COC(=O)C1=C(C)NC(C)=C(C(=O)OCCN(C)Cc2ccccc2)C1c1cccc([N+](=O)[O-])c1 (stereo not drawn) [nicardipine, 2,6-dimethyl-4-(3'-nitrophenyl)-1,4-dihydropyridine-3,5-dicarboxylic acid-3-β-(N-benzyl-N-methylamino)-ethyl ester 5-methyl ester]	high degree of calcium channel blocking activity	first pass metabolism [1]: extensive first pass metabolism; anti-ischemic properties [2]: possesses anti-ischemic properties
